Results as given in patent publication US20230250436A1, “NUCLEIC ACID THAT INTERACTS WITH A RECEPTOR FOR ENDOCRINE DISRUPTING CHEMICALS AND USE THEREOF” (KUMIAI CHEMICAL INDUSTRY CO., LTD., priority 2020, published 2023).

Test system: juvenile hormone receptor of Daphnia magna (DampaMET)
Experiment: Yeast reporter (β-galactosidase) assay, transformants with DampaMET and DampaSRC
Type: cell-based
Experimental: Subsequently, a reporter plasmid prepared by inserting the nucleotide sequence shown in SEQ ID NO: 2 into a yeast comprising the DampaMET plasmid and the DampaSRC plasmid introduced thereinto by the lithium acetate method. Thus, Yeast 1 of Invention was obtained. In the same manner, Yeasts 2 to 38 of Invention each comprising the response element according to the present invention and Control yeasts 1 to 9 shown in Table 3 were prepared.
With the use of the Yeast 1 of Invention, reporter activity to methyl farnesoate as a juvenile hormone substance was measured. At the outset, the Yeast 1 of Invention was subjected to pre-culture at 30° C. for 18 hours using the pre-culture medium shown in Table 1 until the turbidity (O.D. 595) of the pre-culture medium reached approximately 0.1. The solution of the pre-cultured cells (10 μl) and 1 μl of the solution of methyl farnesoate diluted to various concentrations with dimethyl sulfoxide (DMSO) were mixed with 90 μl of the main culture solution shown in Table 4 in a 96-well plate, and the mixture was subjected to static culture at 30° C. for 18 hours to prepare a reaction solution. The resultant was designated as a test group.
A reaction solution prepared with the addition of 1 μl of DMSO instead of a diluted methyl farnesoate solution was designated as a control group. Fractions of 10 μl each were collected from the reaction solutions and dispensed into each well of another 96-well plate. Thereafter, 100 μl of an assay reagent comprising a lytic solution (Z buffer: 60 mM Na2HPO4, 40 mM NaH2PO4, 1 mM MgCl2, 10 mM KCl, 2 mM dithiothreitol, 0.20% N-lauroylsarcosine sodium salt) mixed with 1 mg/ml ONPG (orthonitrophenylgalactopyranoside) was dispensed into each well, and the reaction was allowed to proceed at 37° C. for 30 minutes. Thereafter, the absorbance (O.D. 405) and the turbidity (O.D. 595) of the reaction solutions were assayed at the wavelength of 405 nm using a microplate reader (tradename: iMark microplate reader, Bio-Rad Laboratories). The increase of induction was calculated in accordance with the following formula.
The increase of induction is described in Ito-Harashima S et al., FEBS Open Bio., 7 (7): pp. 995-1008, 2017. When the increase of induction is positive, the transformant is determined to have reporter activity to the substance tested. The test was performed once or repeated 3 times, 5 times, or 15 times, and the average increase of induction was calculated. The control yeast 1 was treated in the same manner and reporter activity was compared.
In the same manner as in Test Example 1, the Yeasts 2, 3, 4, 5, 6, 7, 9, 10, 11, 12, 13, 14, 15, 16, 17, 18, 19, and 20 of Invention were subjected to assays of reporter activity to methyl farnesoate. The test was performed in accordance with Test Example 1, and reporter activity of the yeasts indicated above was compared with that of the control yeasts 2, 3, and 4.
With the use of the control yeast 7 comprising a different nucleotide sequence of the C-box (CACGCG) in the response element, the control yeast 8 comprising a different nucleotide sequence of the E-box (CACGTG), and the control yeast 9 comprising different nucleotide sequences of the C-box and the E-box from the relevant nucleotide sequences of the Yeast 4 of Invention, the influence of a core sequence on reporter activity to methyl farnesoate was evaluated. The test was performed in accordance with Test Example 1.
With the use of the Yeast 4 and the Yeast 8 of the present Invention, reporter activity to sex hormones; i.e., 17β-estradiol and testosterone, insect juvenile hormones; i.e., juvenile hormone III, and chemical substances suspected of having endocrine disrupting actions, such as 4-nonyl phenol, bisphenol A, 1,1,1-trichloro-2,2-bis(4-chlorophenyl)ethane (DDT), 2,2-bis(4-chlorophenyl)-1,1-dichloroethylene (DDE), and dieldrin, was assayed. The test was performed in accordance with Test Example 1. All the test substances were treated at 10 μM. […]

Question: Which results are given for COC(=O)/C=C(\C)CC/C=C(\C)CCC=C(C)C [methyl farnesoate]?
Answer: increase of induction (Yeast 6 of Invention (SEQ ID NO: 5 x3), 10 μM): 1.33; increase of induction (Yeast 6 of Invention (SEQ ID NO: 5 x3), 100 μM): 1.33; increase of induction (Yeast 7 of Invention (SEQ ID NO: 8 x3), 10 nM): 0.06; increase of induction (Yeast 7 of Invention (SEQ ID NO: 8 x3), 100 nM): 0.26; increase of induction (Yeast 7 of Invention (SEQ ID NO: 8 x3), 1 μM): 0.32; increase of induction (Yeast 7 of Invention (SEQ ID NO: 8 x3), 10 μM): 0.36; increase of induction (Yeast 7 of Invention (SEQ ID NO: 8 x3), 100 μM): 0.34; increase of induction (Yeast 9 of Invention (SEQ ID NO: 34 x1), 100 nM): 0.19; increase of induction (Yeast 9 of Invention (SEQ ID NO: 34 x1), 10 μM): 0.16; increase of induction (Yeast 10 of Invention (SEQ ID NO: 34 x2), 100 nM): 0.08; increase of induction (Yeast 10 of Invention (SEQ ID NO: 34 x2), 10 μM): 0.20; increase of induction (Yeast 11 of Invention (SEQ ID NO: 34 x3), 100 nM): 0.22; increase of induction (Yeast 11 of Invention (SEQ ID NO: 34 x3), 10 μM): 0.24; increase of induction (Yeast 12 of Invention (SEQ ID NO: 34 x4), 100 nM): 1.43; increase of induction (Yeast 12 of Invention (SEQ ID NO: 34 x4), 10 μM): 2.55; increase of induction (Yeast 13 of Invention (SEQ ID NO: 34 x5), 10 μM): 0.09; increase of induction (Yeast 14 of Invention (SEQ ID NO: 8 x1), 10 μM): 0.09; increase of induction (Yeast 15 of Invention (SEQ ID NO: 8 x2), 100 nM): 0.09; increase of induction (Yeast 15 of Invention (SEQ ID NO: 8 x2), 10 μM): 0.16; increase of induction (Yeast 16 of Invention (SEQ ID NO: 8 x4), 100 nM): 0.65; increase of induction (Yeast 16 of Invention (SEQ ID NO: 8 x4), 10 μM): 1.32; increase of induction (Yeast 17 of Invention (SEQ ID NO: 37 x1), 100 nM): 0.06; increase of induction (Yeast 17 of Invention (SEQ ID NO: 37 x1), 10 μM): 0.09; increase of induction (Yeast 18 of Invention (SEQ ID NO: 37 x2), 100 nM): 0.10; increase of induction (Yeast 19 of Invention (SEQ ID NO: 37 x3), 100 nM): 1.53; increase of induction (Yeast 19 of Invention (SEQ ID NO: 37 x3), 10 μM): 2.27; increase of induction (Yeast 20 of Invention (SEQ ID NO: 37 x4), 100 nM): 1.55; increase of induction (Yeast 20 of Invention (SEQ ID NO: 37 x4), 10 μM): 1.85; increase of induction (Yeast 25 of Invention (SEQ ID NO: 43 x1), 100 nM): 0.06; increase of induction (Yeast 25 of Invention (SEQ ID NO: 43 x1), 10 μM): 0.15; increase of induction (Yeast 26 of Invention (SEQ ID NO: 43 x2), 100 nM): 0.35; increase of induction (Yeast 26 of Invention (SEQ ID NO: 43 x2), 10 μM): 0.38; increase of induction (Yeast 27 of Invention (SEQ ID NO: 43 x3), 100 nM): 0.03; increase of induction (Yeast 27 of Invention (SEQ ID NO: 43 x3), 10 μM): 0.64; increase of induction (Yeast 28 of Invention (SEQ ID NO: 43 x4), 100 nM): 1.87; increase of induction (Yeast 28 of Invention (SEQ ID NO: 43 x4), 10 μM): 2.51; increase of induction (Yeast 29 of Invention (SEQ ID NO: 46 x1), 100 nM): 0.07; increase of induction (Yeast 29 of Invention (SEQ ID NO: 46 x1), 10 μM): 0.07; increase of induction (Yeast 30 of Invention (SEQ ID NO: 46 x2), 100 nM): 0.16; increase of induction (Yeast 30 of Invention (SEQ ID NO: 46 x2), 10 μM): 0.07; increase of induction (Yeast 31 of Invention (SEQ ID NO: 46 x3), 100 nM): 0.09; increase of induction (Yeast 31 of Invention (SEQ ID NO: 46 x3), 10 μM): 0.23; increase of induction (Yeast 32 of Invention (SEQ ID NO: 49 x1), 100 nM): 0.11; increase of induction (Yeast 32 of Invention (SEQ ID NO: 49 x1), 10 μM): 0.31; increase of induction (Yeast 33 of Invention (SEQ ID NO: 49 x2), 100 nM): 0.42; increase of induction (Yeast 33 of Invention (SEQ ID NO: 49 x2), 10 μM): 0.22; increase of induction (Yeast 34 of Invention (SEQ ID NO: 49 x3), 100 nM): 0.66; increase of induction (Yeast 34 of Invention (SEQ ID NO: 49 x3), 10 μM): 2.15; increase of induction (Yeast 35 of Invention (SEQ ID NO: 49 x4), 100 nM): 1.44; increase of induction (Yeast 35 of Invention (SEQ ID NO: 49 x4), 10 μM): 1.05
